According to US6753010B2, “Soft gelatin capsule containing angelica oil” (Shandong Luye Phamaceutical Co., Ltd., priority 2000, dated 2004):

Test: Influence of temperature on ligustilide content in angelica essential oil (gas chromatography, internal standard diethyl phthalate)
Assay type: physicochemical
Conditions: for Content of ligustilide: in angelica essential oil, sealed vial
Procedure: Gas chromatograph (Shimadzu GC-14B); Diethyl phthalate (Shanghai First Reagents Factory, purity is 99.7% tested by gas chromatography with area normalization method); angelica essential oil (991007).
Test group: Five portions of angelica essential oil (30 μl each) are placed separately in five 7 ml-sealing vials numbered with 0, 1, 2, 3 and 4, weighed accurately and sealed. The vials are laid in an oven (100° C.) and the samples are taken out of the oven after 0, 1, 2, 3 and 4 hours respectively. Anabout 16 μl of diethyl phthalate as the internal standard is added. Then the samples are weighed accurately and diluted with ca. 1 ml of ethyl alcohol additionally. According to the method in the item of ? Purity Test ? under “Protocol and Remarks of the Quality standard for Angelica essential oil” the content of ligustilide is determined.
Control group: Five portions of angelica essential oil (30 μl each) are placed separately in five 7 ml-sealing vials numbered with 0′, 1′, 2′, 3′ and 4′, weighed accurately and sealed. The vials are laid aside under room temperature of 20° C. and about 16 μl of diethyl phthalate as internal standard is added after 0, 1, 2, 3 and 4 hours respectively. […] with ca. 1 ml of ethyl alcohol additionally. According to the method in the item of ? Purity Test ? under “Protocol and Remarks of the Quality standard for Angelica essential oil”, the content of ligustilide is determined.

With `CCC/C=C1\OC(=O)C2=C1CCC=C2` [ligustilide] the “Stability of ligustilide content (in words)” value (in angelica essential oil under room temperature (20° C.)) was “relatively stable”, the “Stability of ligustilide content (in words)” value (in angelica essential oil under temperature of 100° C.) was “decreases gradually” and the Content of ligustilide (higher temperature (100° C.), 0 hour) was 55.50%. It also gave a Content of ligustilide (higher temperature (100° C.), 1 hour) of 41.89%, a Content of ligustilide (higher temperature (100° C.), 2 hours) of 32.74% and a Content of ligustilide (higher temperature (100° C.), 3 hours) of 21.89%. It also gave a Content of ligustilide (higher temperature (100° C.), 4 hours) of 12.00%, a Content of ligustilide (room temperature (20° C.), 0 hour) of 55.5% and a Content of ligustilide (room temperature (20° C.), 1 hour) of 56.01%. For the same compound, the Content of ligustilide (room temperature (20° C.), 2 hours) was 56.66%, the Content of ligustilide (room temperature (20° C.), 3 hours) was 55.78% and the Content of ligustilide (room temperature (20° C.), 4 hours) was 55.39%.
